Source: EP4700040A1, “PEPTIDE AND LUMINESCENT COMPLEX CONTAINING SAME” (Shenzhen Loggene Life Science & Technology Co., Ltd., priority 2023, dated 2024)

Assays:
Assay type in all cases: biochemical, human
[1] = system: PCT; experiment: Signal-to-noise ratio and linear range for PCT detection, purified fusion proteins (Example 3); design: key: luminescence normalized against the background value; conditions: PCT 3.3 (pg/ml); normalized against the background value
[2] = system: PCT; experiment: as above; design: key to luminescence value: luminescence normalized against the background value; conditions: for Signal-to-noise ratio at 1000 pg/ml: large subunit 100 nM, small subunit fusion 180 nM, CTZ-h 25 µM, 140 s
Description: Test Methods: • (1) MBP-PCT protein was diluted with PBSAD in 10-fold gradient starting from 100 ng/ml, with 8 gradients in total, and 10 µl was added per well; • (2) The large subunit-SCFV5 fusion protein was diluted with PBSA to 100 nM, and 10 µl was added per well; • (3) Different rSCFV18-small subunit mutant fusion proteins were diluted with PBSA to 180 nM, and 10 µl of each was added per well; • (4) The plate was mixed slightly and incubated at 37°C for 10 min; and • (5) 50 µl of Obuffer 6.37-3 containing 25 µM of CTZ-h was added, and after 140 s, the luminescence value was detected. The results are shown after normalization against the background value.

[3] = system: PCT; experiment: Complementation of purified rSCFV18-small subunit mutant fusion protein with large subunit-rSCFV5 fusion protein, PCT gradient (Example 2); conditions: for luminescence value: CTZ-h 25 µM, 20 s; for Signal-to-noise ratio at 1000 pg/ml: PCT 1000 pg/ml versus 0
Description: Protein expression and purification of small subunit mutants: The strains containing plasmids of different small subunits inTable 2, prepared in Example 1, were inoculated into 200ml of 2YTA medium and cultured at 37°C with shaking at 250 rpm for about 3h. When the OD600 reached 1.0, IPTG was added to a final concentration of 1mM, and the culture was further incubated at 30°C with shaking at 250rpm for 20h. The culture were centrifuged at 5,000g for 10min, and the precipitate was resuspended with 10ml of PBS, added with polymyxin B to 20,000u/ml. The suspension was inverted and mixed at room temperature for 1h, and centrifuged at 10,000g to collect the supernatant. The rSCFV18-small subunit mutant fusion protein was purified according to the standard procedure for his-tag protein purification using Ni-NTA resin.
In the same tube, the large subunit-rSCFV5 fusion protein was diluted with PBSA to 50 nM; rSCFV18-small subunit mutant fusion protein was diluted to 90 nM, mixed well, and then 22 µl was added per well; the MBP-PCT fusion protein was diluted in 3-fold gradient with PBSAD (in pg/ml), with 8 gradients in total, 10µl was added per well, and the background control was PBSAD and 10 µl was added per well; the plate was mixed with slight shaking and incubated at 37°C for 6 min, 50 µl of Obuffer 6.37-3 containing 25 µM of CTZ-h then was added, and after 20 s, the luminescence value was detected.

[4] = system: PCT; experiment: Luciferase dual-antibody complementary activation assay for PCT detection, clone supernatants, retest with CTZ-h (Example 1); conditions: for Signal-to-noise ratio: RLU antigen+/RLU antigen-, MBP-PCT 3.3 ng/ml, CTZ-h; for PCT+: luminescence signal value with MBP-PCT 3.3 ng/ml, large subunit-rSCFV5 50 nM, supernatant; for PCT+ / PCT-: retest CTZ-h 25 µM, read after 60 s; for PCT-: luminescence signal value, background control PBSAD without PCT
Description: In order to improve the signal-to-noise ratio and complementary activity of the luciferase dual-antibody complementary activation assay, a series of complementary luciferase small subunits were prepared in this example. Large subunit-rSCFV5 fusion protein (SEQ ID NO: 87) was kept unchanged, and the small subunit sequence of the rSCFV18-small subunit P114 fusion protein (SEQ ID NO: 88) was modified by semi-randomization to prepare rSCFV18-small subunit mutant fusion proteins. Based on the sequence of small subunit P114, and with reference to the 3D structure of complementary luciferase, computer-aided sequence design was employed to generate a library with a theoretical diversity of 2.49*10^6. Primers were designed for PCR amplification using the plasmid pComb3x of rSCFV18-small subunit P114 fusion protein as a template. Subsequently, an expression vector library was constructed by means of restriction digestion and ligation (SfiI, NheI), and a semi-random amino acid mutation library was introduced into the small subunit position and transformed into HB2151 competent cells, yielding a library capacity of 7.6*10^9. The 100 plates were spread, and 9,500 single clones were picked and inoculated into 600 µL of 2YTA medium, followed by incubation at 37°C with shaking at 250 rpm for 2 h. When the bacterial density reached approximately OD600 = 0.6~1.0, IPTG was then added to a final concentration of 1 mM, and the culture was further incubated at 30°C with shaking at 250 rpm for 20 h. The next day, the bacteria were collected by centrifugation at 4°C, 4,500g for 10min. The supernatant was discarded, and the precipitate was resuspended with 200µl of PBS containing polymyxin B at a final concentration of 20,000 u/ml. The suspension was incubated at room temperature with shaking at 100rpm for 1h, and then centrifuged at 4500g for 10min, and the supernatant was used for the test.
Test Methods: • (1) The concentration of large subunit-rSCFV5 fusion protein was diluted to 50 nM, and 15 µl was added per well; • (2) MBP-PCT fusion protein was diluted to 3.3 ng/ml with PBSAD, and 15 µl was added per well. The background control was PBSAD, and 10 µl was added per well; • (3) HB2151 strain containing expression plasmids with different small subunit were induced by 1 mM of IPTG at 30°C overnight, then treated with polymyxin B for 1.5 h, and centrifuged to collect the supernatant, and 2.5 µl supernatant was added per well; • (4) The above three components were slightly mixed, incubated at 37°C for 7 min, and Obuffer 6.37-3 containing Furimazine at a concentration of 25 µM was added, and after 80 s, the luminescence signal value was detected using a bioluminescence detector; and • (5) Clones with RLU higher than 10,000 and a signal-to-noise ratio (RLU antigen+/RLU antigen-) higher than that of the rSCFV18-small subunit P114 fusion protein were selected for retesting. The substrate was replaced with CTZ-h for retesting. Obuffer 6.37-3 containing CTZ-h at a concentration of 25 µM was added, and after 60 s, the luminescence signal value was detected using a bioluminescence detector.

[5] = PCT 100 (pg/ml), normalized against the background value
[6] = PCT 1000 (pg/ml), normalized against the background value
[7] = PCT 10000 (pg/ml), normalized against the background value
[8] = PCT 100000 (pg/ml), normalized against the background value
[9] = PCT 0 pg/ml (background control PBSAD)
[10] = PCT 1000 pg/ml, large subunit 50 nM, small subunit fusion 90 nM

| Sequence | luminescence value [1] | luminescence value ([2]; PCT 0, background, normalized) | luminescence value [2, 5] | luminescence value [2, 6] | luminescence value [2, 7] | luminescence value [2, 8] | Signal-to-noise ratio at 1000 pg/ml [2] | signal-to-noise ratios in luciferase dual-antibody complementary activation for PCT detection ([2]; statement in words on Table 3 and Figure 2) | luminescence value [3, 9] | luminescence value ([3]; PCT 1.37 pg/ml) | luminescence value ([3]; PCT 4.12 pg/ml) | luminescence value ([3]; PCT 12.35 pg/ml) | luminescence value ([3]; PCT 37.04 pg/ml) | luminescence value ([3]; PCT 111.1 pg/ml) | luminescence value ([3]; PCT 333.3 pg/ml) | Signal-to-noise ratio at 1000 pg/ml [3] | luminescence value [3, 10] | Signal-to-noise ratio [4] | PCT+ [4] | PCT- [4] |
| --- | --- | --- | --- | --- | --- | --- | --- | --- | --- | --- | --- | --- | --- | --- | --- | --- | --- | --- | --- | --- |
| VEGYRLFDRKS [RB073] | 5283 | 5000 | 12151 | 72352 | 566678 | 1966617 | 14.5 | higher signal-to-noise ratios | 412 | 358 | 475 | 591 | 1013 | 2302 | 5886 | 38.9 | 16026 | 48 | 46672 | 953 |
| VTGYRLFEEIL [P114, reference compound] | 4789 | 5000 | 7073 | 18839 | 129750 | 642399 | 3.8 | – | 333 | 398 | 383 | 400 | 435 | 495 | 656 | 1.44 | 1256 | 12.2 | 5058 | 414 |
